Here are results for one molecule from ChEMBL document CHEMBL3525899, “Identification of the cytochrome P450 and other enzymes involved in the in vitro oxidative metabolism of a novel antidepressant, Lu AA21004” (Drug Metab Dispos, 2012).

In one data set the target is T1, Cytochrome P450 2C8 (Homo sapiens, UniProt P10632).
T1 sequence (P10632 whole entry): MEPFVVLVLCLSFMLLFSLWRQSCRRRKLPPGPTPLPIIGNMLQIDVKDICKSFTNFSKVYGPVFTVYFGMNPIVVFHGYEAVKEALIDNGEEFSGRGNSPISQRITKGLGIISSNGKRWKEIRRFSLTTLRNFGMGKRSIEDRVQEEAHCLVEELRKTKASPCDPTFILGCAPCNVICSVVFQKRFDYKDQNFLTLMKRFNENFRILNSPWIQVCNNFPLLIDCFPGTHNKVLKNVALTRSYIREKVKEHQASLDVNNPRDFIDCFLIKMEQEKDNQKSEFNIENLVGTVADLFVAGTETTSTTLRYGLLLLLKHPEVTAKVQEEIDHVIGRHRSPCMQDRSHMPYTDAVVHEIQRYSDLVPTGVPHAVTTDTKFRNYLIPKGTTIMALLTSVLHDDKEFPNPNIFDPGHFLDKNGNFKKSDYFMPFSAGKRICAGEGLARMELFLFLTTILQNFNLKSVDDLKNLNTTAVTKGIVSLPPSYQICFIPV
Kind of data set: Activity of human recombinant CYP2C8 expressed in microsomes isolated from human AHH-1 cells assessed as enzyme-mediated 1-(2-(2,4-dimethylphenylsulfinyl)phenyl)piperazine formation at 8 to 50 uM after 120 mins by HPLC/MS-MS analysis in presence of NADPH regenerating system with NADP+. It is filed as ADME, cell-free. The note with it: 2 h.

The test system of data set [1] is Liver microsome. Put plainly: Drug metabolism in pooled human liver microsomes assessed as formation of 4-(2-(2,4-dimethylphenylthio)phenyl)piperazin-1-ol after 30 mins by Michaelis-Menten plot analysis in presence of NADPH regenerating system with NADP+. It is filed as ADME. The note with it: 0.5 h, read-out: Km(app). A general note: Microsomes from liver hold many membrane-bound enzymes, among them those of drug oxidation.

The target in data set [2] is T2, Flavin-containing monooxygenase 3 (Homo sapiens, UniProt P31513).
T2 sequence (P31513 whole entry): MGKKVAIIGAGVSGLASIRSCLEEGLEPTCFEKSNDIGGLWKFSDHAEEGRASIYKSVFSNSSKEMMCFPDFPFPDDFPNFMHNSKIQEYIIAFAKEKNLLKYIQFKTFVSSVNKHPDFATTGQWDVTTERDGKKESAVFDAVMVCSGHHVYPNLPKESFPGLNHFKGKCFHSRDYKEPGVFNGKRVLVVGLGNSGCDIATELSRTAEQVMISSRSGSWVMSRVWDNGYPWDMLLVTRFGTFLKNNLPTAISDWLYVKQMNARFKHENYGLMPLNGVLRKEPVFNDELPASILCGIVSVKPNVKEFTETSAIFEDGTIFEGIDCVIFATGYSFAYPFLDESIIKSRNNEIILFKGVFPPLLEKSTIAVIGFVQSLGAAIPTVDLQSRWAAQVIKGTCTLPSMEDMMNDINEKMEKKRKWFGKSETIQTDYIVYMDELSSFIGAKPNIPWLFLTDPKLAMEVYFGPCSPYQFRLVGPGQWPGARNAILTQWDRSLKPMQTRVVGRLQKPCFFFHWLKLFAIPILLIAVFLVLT
Put plainly: Activity of human recombinant FMO3 expressed in microsomes isolated from baculovirus infected insect BTI-TN-5B1-4 cells assessed as enzyme-mediated 3-methyl-4-(2-(piperazin-1-yl)phenylthio)benzoic acid formation at 8 to 50 uM after 120 mins by HPLC/MS-MS analysis in presence of NADPH regenerating system with NADP+. The note with it: 2 h. In kind it is ADME.

A further data set deals with Cytochrome P450 3A4 (Homo sapiens, UniProt P08684). Kind of data set: Activity of human recombinant CYP3A4 expressed in microsomes isolated from human AHH-1 cells assessed as enzyme-mediated 3-(2,4-dimethylphenylthio)-4-(piperazin-1-yl)phenol formation at 8 to 50 uM after 120 mins by HPLC/MS-MS analysis in presence of NADPH regenerating system with NADP+. It is filed as ADME, cell-free. Particulars: 2 h.
Sequence of Cytochrome P450 3A4 (P08684 whole entry): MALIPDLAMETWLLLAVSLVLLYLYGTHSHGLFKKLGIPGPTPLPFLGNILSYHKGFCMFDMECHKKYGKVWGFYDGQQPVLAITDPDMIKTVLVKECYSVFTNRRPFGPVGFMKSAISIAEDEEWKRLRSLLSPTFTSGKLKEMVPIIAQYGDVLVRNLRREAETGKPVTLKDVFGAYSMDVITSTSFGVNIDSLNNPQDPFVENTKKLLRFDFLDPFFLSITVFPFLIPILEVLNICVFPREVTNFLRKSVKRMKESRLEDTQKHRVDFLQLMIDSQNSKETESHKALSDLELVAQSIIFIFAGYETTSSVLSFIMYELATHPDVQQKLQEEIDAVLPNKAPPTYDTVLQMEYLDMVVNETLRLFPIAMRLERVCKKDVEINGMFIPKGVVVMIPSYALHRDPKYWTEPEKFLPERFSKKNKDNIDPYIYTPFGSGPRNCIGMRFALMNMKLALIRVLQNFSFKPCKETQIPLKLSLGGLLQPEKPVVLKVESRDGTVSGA

Data set [3] deals with Liver microsome. Kind of data set: Drug metabolism in phenotyped human liver microsomes assessed as formation of 4-(2-(2,4-dimethylphenylthio)phenyl)piperazin-1-ol at 8 to 50 uM after 60 mins by HPLC/MS-MS analysis in presence of NADPH regenerating system with NADP+. In kind it is ADME. The note with it: 1 h.
The target of a further data set is T3, Cytochrome P450 2B6 (Homo sapiens, UniProt P20813).
T3 sequence (P20813 whole entry): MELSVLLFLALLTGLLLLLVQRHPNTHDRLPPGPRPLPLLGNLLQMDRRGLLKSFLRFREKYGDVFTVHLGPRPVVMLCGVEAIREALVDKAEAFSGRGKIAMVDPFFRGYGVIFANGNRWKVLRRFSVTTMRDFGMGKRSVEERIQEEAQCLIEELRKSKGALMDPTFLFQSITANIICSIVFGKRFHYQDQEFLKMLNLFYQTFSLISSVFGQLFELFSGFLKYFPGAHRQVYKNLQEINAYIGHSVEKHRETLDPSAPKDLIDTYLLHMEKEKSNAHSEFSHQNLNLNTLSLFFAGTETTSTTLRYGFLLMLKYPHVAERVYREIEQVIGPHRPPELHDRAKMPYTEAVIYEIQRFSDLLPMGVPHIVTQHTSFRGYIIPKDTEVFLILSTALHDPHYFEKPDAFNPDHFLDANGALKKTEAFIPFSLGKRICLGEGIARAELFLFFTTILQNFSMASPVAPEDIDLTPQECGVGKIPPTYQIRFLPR
Kind of data set: Activity of human recombinant CYP2B6 expressed in microsomes isolated from human AHH-1 cells assessed as enzyme-mediated 1-(2-(2,4-dimethylphenylsulfinyl)phenyl)piperazine formation at 8 to 50 uM after 120 mins by HPLC/MS-MS analysis in presence of NADPH regenerating system with NADP+. The note with it: 2 h. In kind it is ADME, cell-free.

The target of data set [4] is T2, Flavin-containing monooxygenase 3. Put plainly: Activity of human recombinant FMO3 expressed in microsomes isolated from baculovirus infected insect BTI-TN-5B1-4 cells assessed as enzyme-mediated 3-(2,4-dimethylphenylthio)-4-(piperazin-1-yl)phenol formation at 8 to 50 uM after 120 mins by HPLC/MS-MS analysis in presence of NADPH regenerating system with NADP+. Particulars: 2 h. In kind it is ADME.

In data set [5] the test system is Liver microsome. Put plainly: Drug metabolism in pooled human liver microsomes assessed as formation of 3-(2,4-dimethylphenylthio)-4-(piperazin-1-yl)phenol at 100 uM after 30 to 180 mins by HPLC/MS-MS analysis in presence of NADPH regenerating system with NADP+. In kind it is ADME.
The next data set concerns the target Cytochrome P450 2C9 (Homo sapiens, UniProt P11712). Kind of data set: Activity of human recombinant CYP2C9 expressed in microsomes isolated from human AHH-1 cells assessed as enzyme-mediated 4-(2-(2,4-dimethylphenylthio)phenyl)piperazin-1-ol formation at 8 to 50 uM after 120 mins by HPLC/MS-MS analysis in presence of NADPH regenerating system with NADP+. In kind it is ADME, cell-free. Particulars: 2 h.

For a further data set, the target named is Cytochrome P450 2C19 (Homo sapiens, UniProt P33261). Kind of data set: Activity of human recombinant CYP2C19 expressed in microsomes isolated from human AHH-1 cells assessed as enzyme-mediated 3-(2,4-dimethylphenylthio)-4-(piperazin-1-yl)phenol formation at 8 to 50 uM after 120 mins by HPLC/MS-MS analysis in presence of NADPH regenerating system with NADP+. Particulars: 2 h. It is filed as ADME, cell-free.
Sequence of Cytochrome P450 2C19 (P33261 whole entry): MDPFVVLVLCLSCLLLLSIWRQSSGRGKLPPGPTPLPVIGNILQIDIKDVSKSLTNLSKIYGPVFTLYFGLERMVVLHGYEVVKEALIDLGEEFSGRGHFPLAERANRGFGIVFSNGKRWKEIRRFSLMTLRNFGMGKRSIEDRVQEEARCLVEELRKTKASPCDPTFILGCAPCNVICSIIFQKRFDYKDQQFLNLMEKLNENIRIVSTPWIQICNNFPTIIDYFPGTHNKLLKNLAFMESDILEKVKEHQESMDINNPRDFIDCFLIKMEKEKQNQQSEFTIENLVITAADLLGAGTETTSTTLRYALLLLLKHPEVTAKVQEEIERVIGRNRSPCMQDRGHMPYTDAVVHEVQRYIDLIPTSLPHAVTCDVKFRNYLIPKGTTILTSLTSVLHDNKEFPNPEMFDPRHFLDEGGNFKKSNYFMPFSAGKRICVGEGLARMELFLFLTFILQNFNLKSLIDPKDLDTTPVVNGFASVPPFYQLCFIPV

The target in data set [6] is T2, Flavin-containing monooxygenase 3. Put plainly: Activity of human recombinant FMO3 expressed in microsomes isolated from baculovirus infected insect BTI-TN-5B1-4 cells assessed as enzyme-mediated 1-(2-(2,4-dimethylphenylsulfinyl)phenyl)piperazine formation at 8 to 50 uM after 120 mins by HPLC/MS-MS analysis in presence of NADPH regenerating system with NADP+. In kind it is ADME. Particulars: 2 h.

Sequence of Cytochrome P450 2C9 (P11712 whole entry): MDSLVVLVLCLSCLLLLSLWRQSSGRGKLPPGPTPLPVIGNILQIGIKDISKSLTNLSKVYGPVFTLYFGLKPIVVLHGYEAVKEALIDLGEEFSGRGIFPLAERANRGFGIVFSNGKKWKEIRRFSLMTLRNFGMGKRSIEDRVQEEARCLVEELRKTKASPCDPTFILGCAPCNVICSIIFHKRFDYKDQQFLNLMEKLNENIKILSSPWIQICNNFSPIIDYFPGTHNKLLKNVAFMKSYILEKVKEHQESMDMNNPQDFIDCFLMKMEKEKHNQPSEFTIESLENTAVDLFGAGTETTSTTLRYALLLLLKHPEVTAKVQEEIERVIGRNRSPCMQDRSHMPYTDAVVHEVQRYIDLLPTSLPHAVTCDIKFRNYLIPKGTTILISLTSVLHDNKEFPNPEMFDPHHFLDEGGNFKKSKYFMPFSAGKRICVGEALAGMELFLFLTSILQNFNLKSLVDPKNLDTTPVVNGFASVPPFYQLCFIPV

The term Km denotes the substrate concentration at which the rate is half of its maximum. With `Br.Cc1ccc(Sc2ccccc2N2CCNCC2)c(C)c1` [VORTIOXETINE HYDROBROMIDE], the Drug metabolism entry is “metabolite_detected” at Cytochrome P450 2C8; “metabolite_not_detected” in [2]; “metabolite_not_detected” at Cytochrome P450 3A4; “metabolite_detected” in the data set on Liver microsome [3]; “metabolite_not_detected” at Cytochrome P450 2B6; “metabolite_not_detected” in [4]. For the same molecule, the Drug metabolism result with Liver microsome [5] is on record as “metabolite_detected”; at Cytochrome P450 2C9 it was “metabolite_detected”; on Cytochrome P450 2C19, “metabolite_detected”; in [6], “metabolite_not_detected”. In addition, in the data set on Liver microsome [1], the Michaelis constant (Km) worked out at 300 µM.
